Source: publication PMC7405733, “Pharmacokinetics of micafungin in patients treated with extracorporeal membrane oxygenation: an observational prospective study” (Revista Brasileira de Terapia Intensiva, 2020)
Converted amounts (≈) assume the structure as drawn. Read-outs that look alike come from different tables or passages of the source. *1 amine or outer side, *2 acyl side, *3 side chain or, on linkers, in order; H or OH if unused. Where a SMILES comes first, the peptide text is derived from it. Bridges are numbered along the chain shown (N, C = ends). [ ]: non-standard residue; d: D form. The star is where a group is joined. hTyr(3S-OH,4S-OH,3'-OSO3H) = N[C@H](C(=O)O)[C@H](O)[C@@H](O)c1ccc(O)c(OS(=O)(=O)O)c1; Orn(4R-OH,5R-OH) = O=C([C@H](C[C@@H](O)[C@@H](O)N[*:3])N[*:1])[*:2]; Pro(3S-OH,4S-Me) = C[C@H]1CN[C@H](C(=O)O)[C@H]1O; X1 = CCCCCOc1ccc(-c2cc(-c3ccc(C(=O)*)cc3)no2)cc1; Gln(3R-OH) = NC(=O)C[C@@H](O)[C@H](N)C(=O)O; Hyp = O=C(O)[C@@H]1C[C@@H](O)CN1

Assays:
candidemia = test: Candidemia in patients on ECMO receiving prophylactic micafungin; format: in vivo, human; conditions: prophylactic micafungin 100mg, 12 adult ECMO patients
Method: (§1) We conducted an observational, prospective, noninterventional and nondrug-linked study of the PKs and safety of micafungin in adult patients treated with ECMO in two Spanish hospitals: the intensive care unit (ICU) of the Hospital Universitario Marqués de Valdecilla, Santander, and the Anaesthesiology and Reanimation Department of the Hospital Universitario La Fe, Valencia, Spain. Prophylactic micafungin was administered in all patients. The study period was from January 2015 until April 2016. The PK analysis was performed in the Hospital del Mar, Barcelona, Spain. The trial was authorized by the corresponding Ethics Committees (CEIC Approval Number 17/2014), and Informed Consent of all the patients or their legal representatives was obtained.

[1] = Micafungin plasma pharmacokinetics in adult patients treated with ECMO (samples before and after the oxygenation membrane); format: in vivo, human; conditions: for clearance / Vd / Cmax / AUC: human
Method: as §1
Micafungin was given at a dose of 100mg diluted in 100ml of 0.9% saline in a 60-minute infusion always protected from light to prevent degradation. Five mL blood samples were taken, protected from light, on days 1 and 4 of the treatment with micafungin. The samples were taken through an access point before and after the oxygenation membrane (input and output, respectively). The extraction times for the calculation of complete PK curves were as follows: before the administration of the drug (trough or zero time); immediately after intravenous infusion (1-hour peak or end-of-infusion peak); and 3, 5, 8, 18 and 24 hours after the beginning of the infusion. Samples were centrifuged at a speed of 1,000g for ten minutes at 4 °C. The supernatant plasma was aliquoted into volumes of 150µl that were frozen at -80 °C until they were to be analyzed. The measurement of the total micafungin concentration (free plus protein-bound fractions) was performed by means of a high-performance liquid chromatography technique.
The following PK parameters were calculated: area under the curve (AUC), CL, Vd and plasma half-life time (t/2) with a noncompartmental PK data analysis using a nonparametric method: the Mann-Whitney test and the Wilcoxon signed-rank test (paired test, in consecutive days). For precision analysis, confidence intervals were calculated by bootstrapping with 1,000 repetitions using the method […] (BCa).
The calculation of the differences in the concentration of micafungin at the input (Cin) and output (Cout) of the oxygenator membrane allowed us to calculate the oxygenator’s degree of extraction. It should be remembered that there may be losses of micafungin in tubes and cannula and in the centrifugal pump.
Only continuous epidemiological and clinical data are presented as the mean and standard deviation (SD), and categorical data are presented as absolute numbers because of the small sample size. The rest of the parameters, including Cmin and Cmax, are presented as medians.

[2] = ECMO patients vs non-ECMO patients; hemodialysis was used in 4 patients; cited from earlier work
Description: Adsorption by the hemoﬁlter appears to be the most likely explanation when this is in line with an ECMO system. In an “ex vivo” study, the recovery of micafungin was 91% when the in-line hemofilter was removed.

Candida albicans = test system: Candida albicans; set-up: method as in PMID 24153129, PMID 21300835; conditions: published for Candida albicans; cited from earlier work
[3] = set-up: method as in PMID 25947367; conditions: daily dose of 100mg, cited from earlier work

For `CCCCCOc1ccc(-c2cc(-c3ccc(C(=O)N[C@H]4C[C@@H](O)[C@@H](O)NC(=O)[C@@H]5[C@@H](O)[C@@H](C)CN5C(=O)[C@H]([C@H](O)CC(N)=O)NC(=O)[C@H]([C@H](O)[C@@H](O)c5ccc(O)c(OS(=O)(=O)O)c5)NC(=O)[C@@H]5C[C@@H](O)CN5C(=O)[C@H]([C@@H](C)O)NC4=O)cc3)no2)cc1` [micafungin] (X1-[Orn(4R-OH,5R-OH)]T[Hyp][hTyr(3S-OH,4S-OH,3'-OSO3H)][Gln(3R-OH)][Pro(3S-OH,4S-Me)]; lactam 1-C), the “candidemia in patients on ECMO who received prophylactic micafungin” value (candidemia) was “No candidemia was observed”, the Cmin out ([1]; Table 2, day 1, after membrane, 100mg iv, ECMO patients, plasma HPLC, median) was 1410 ng/mL and the “CL in” value ([1]; Table 2, day 1, before membrane, 100mg iv, ECMO patients, noncompartmental, median) was 1.07 L/h. The “Cmin in” value ([1]; Table 2, day 1, before membrane, 100mg iv, ECMO patients, plasma HPLC, median) was 1410 ng/mL, the Cmin out ([1]; Table 2, day 4, after membrane, 100mg iv, ECMO patients, plasma HPLC, median) was 1750 ng/mL and the “Cmin in” value ([1]; Table 2, day 4, before membrane, 100mg iv, ECMO patients, plasma HPLC, median) was 1800 ng/mL. The “AUCin on day one” value ([1]; adult ECMO patients, 100mg 60-minute iv infusion, day 1, sample before the membrane, plasma total concentration by HPLC, noncompartmental, 95%CI 52.8 - 73.4, 10 patients) was 62100 ng·h/mL, the “AKI AUCout” value ([1]; day 1, ECMO patients with acute kidney injury, after membrane, 100mg iv, p = 0.71) was 69.3 p = 0.71 and the “Hepatic failure AUCout” value ([1]; day 1, ECMO patients with hepatic failure, after membrane, 100mg iv, p = 0.91) was 61.6 p = 0.91. For the same compound, the “AKI AUCout” value ([1]; day 4, ECMO patients with acute kidney injury, after membrane, 100mg iv, p = 0.88) was 106.7 p = 0.88, the “Hepatic failure AUCout” value ([1]; day 4, ECMO patients with hepatic failure, after membrane, 100mg iv, p = 0.68) was 85.2 p = 0.68 and the “concentration difference between samples before the membrane (C in) and after the membrane (C out)” value ([1]; first day of treatment, 100mg iv, ECMO patients, figure 1A) was “did not show any concentration difference”. The “concentration difference between samples before the membrane (Cin) and after the membrane (Cout)” value ([1]; fourth day of treatment, 100mg iv, ECMO patients, figure 1B) was “did not show any concentration difference”, the clearance ([1]; plasma, iv, 100 mg, Table 2, day 1, after membrane, 100mg iv, ECMO patients, noncompartmental, median, read-out: CL out (converted)) was 16.5 mL/min and the Vd ([1]; plasma, iv, 100 mg, Table 2, day 1, after membrane, 100mg iv, ECMO patients, noncompartmental, median, read-out: Vd out) was 27.2 L. It also gave a Cmax ([1]; plasma, iv, 100 mg, Table 2, day 1, after membrane, 100mg iv, ECMO patients, plasma HPLC, median, read-out: Cmax out) of 4950 ng/mL, an AUC ([1]; plasma, iv, 100 mg, Table 2, day 1, after membrane, 100mg iv, ECMO patients, plasma HPLC, noncompartmental, median, read-out: AUC out) of 54100 ng·h/mL and a Vd ([1]; plasma, iv, 100 mg, Table 2, day 1, before membrane, 100mg iv, ECMO patients, noncompartmental, median, read-out: Vd in) of 28.6 L. It also gave a Cmax ([1]; plasma, iv, 100 mg, Table 2, day 1, before membrane, 100mg iv, ECMO patients, plasma HPLC, median, read-out: Cmax in) of 5850 ng/mL, a clearance ([1]; plasma, iv, 100 mg, Table 2, day 4, after membrane, 100mg iv, ECMO patients, noncompartmental, median, read-out: CL out (converted)) of 12.8 mL/min and a Vd ([1]; plasma, iv, 100 mg, Table 2, day 4, after membrane, 100mg iv, ECMO patients, noncompartmental, median, read-out: Vd out) of 18.1 L. It also gave a Cmax ([1]; plasma, iv, 100 mg, Table 2, day 4, after membrane, 100mg iv, ECMO patients, plasma HPLC, median, read-out: Cmax out) of 6750 ng/mL, an AUC ([1]; plasma, iv, 100 mg, Table 2, day 4, after membrane, 100mg iv, ECMO patients, plasma HPLC, noncompartmental, median, read-out: AUC out) of 81000 ng·h/mL and a clearance ([1]; plasma, iv, 100 mg, Table 2, day 4, before membrane, 100mg iv, ECMO patients, noncompartmental, median, read-out: CL in (converted)) of 11.8 mL/min. It also gave a Vd ([1]; plasma, iv, 100 mg, Table 2, day 4, before membrane, 100mg iv, ECMO patients, noncompartmental, median, read-out: Vd in) of 16.1 L, a Cmax ([1]; plasma, iv, 100 mg, Table 2, day 4, before membrane, 100mg iv, ECMO patients, plasma HPLC, median, read-out: Cmax in) of 12200 ng/mL and an AUC ([1]; plasma, iv, 100 mg, Table 2, day 4, before membrane, 100mg iv, ECMO patients, plasma HPLC, noncompartmental, median, read-out: AUC in) of 88800 ng·h/mL. For the same compound, the AUC ([1]; plasma, iv, 100 mg, day 1, ECMO patients without acute kidney injury, after membrane, 100mg iv, read-out: No AKI AUCout) was 61900 ng·h/mL, the AUC ([1]; plasma, iv, 100 mg, day 1, ECMO patients without hepatic failure, after membrane, 100mg iv, read-out: No hepatic failure AUCout) was 66100 ng·h/mL and the AUC ([1]; plasma, iv, 100 mg, day 4, ECMO patients without acute kidney injury, after membrane, 100mg iv, read-out: No AKI AUCout) was 95100 ng·h/mL. The AUC ([1]; plasma, iv, 100 mg, day 4, ECMO patients without hepatic failure, after membrane, 100mg iv, read-out: No hepatic failure AUCout) was 117000 ng·h/mL, the AUC ([1]; adult ECMO patients, 100mg 60-minute iv infusion, day 1, sample after the membrane, plasma HPLC, noncompartmental, 95%CI 52.4 - 76.7, 10 patients, read-out: AUCout on day one) was 63400 ng·h/mL and the “reduction in the AUC in the ECMO group versus non-ECMO control group” value [2] was 23%. For the same compound, the MIC90 (Candida albicans) was 0.03 µg/mL (≈ 0.0236 µM), the “AUC after a daily dose of 100mg in ICU patients” value ([3]; ICU patients (without ECMO)) was 78.6 mg·h/L and the “AUC after a daily dose of 100mg in healthy adults” value ([3]; healthy adults) was 132.6 mg·h/L.
